The numbers were not newly measured in article PMC7207041 (Medicinal chemistry research : an international journal for …, 2020), which cites them from elsewhere.

SMILES strings stand for the structures.

One series deals with Nrf2-regulated proteins. Particulars: WT mice; ref Walsh et al. 2014.
Series [1] concerns ARE-mediated genes in HepG2 cells. The settings on record: read-out: EC50, activation of ARE-mediated genes, ref Hu et al. 2013b.
Series [2] concerns cultured human kidney cells (HEK293). The settings on record: HEK293, 50 and 100 μM; ref Wen et al. 2015.
For series [3] the following is noted: ref Lazzara et al. 2020.
For series [4] the following is noted: human liver microsomes; ref Lazzara et al. 2020.
For the next series, the target named is Keap1 Kelch domain. The settings on record: read-out: Kd in ITC assay; ref Winkel et al. 2015.
For series [5] the following is noted: human, mouse, and rat; ref Winkel et al. 2015.
The test system of another series is GCLC and NQO1. Particulars: mouse, administered together with a cytochrome P450 inhibitor; ref Winkel et al. 2015.
In series [6] the test system is Keap1-Nrf2 PPI. Particulars: read-out: IC50 in FP assay; ref Jiang et al. 2018.
The subject of series [7] is LPS-induced cardiomyopathy. The settings on record: ref Jiang et al. 2018.
The target in series [8] is Keap1-Nrf2 PPI. The settings on record: same FP assay conditions; ref Tran et al. 2019.

Turning to `COC(=O)[C@]12CCC(C)(C)C[C@H]1[C@H]1C(=O)C=C3[C@@]4(C)C=C(C#N)C(=O)C(C)(C)[C@@H]4CC[C@@]3(C)[C@]1(C)CC2` [CDDO-Me, bardoxolone methyl], in the series on Nrf2-regulated proteins, the “number of proteins changed by treatment” value is listed as 43 proteins.
Turning to `O=C(O)[C@H]1CCCC[C@H]1C(=O)N1CCc2ccccc2[C@H]1CN1C(=O)c2ccccc2C1=O` [Compound 1], in [1], the EC50 is 18 µM. For the same compound, in series [2], the “HO-1 protein expression enhancement” value is 3.5 fold and the “TRX1 protein expression enhancement” value is 2–4 fold.
As for `COc1ccc(S(=O)(=O)N(CC(F)(F)F)c2cnc(N(CC(=O)O)S(=O)(=O)c3ccc(OC)cc3)c3ccccc23)cc1` [Compound 11], the logD7.4 in series [3] is on record as 0.5. In addition, the “metabolic stability t1/2” value in series [4] is recorded as 136 min. Further, the “cellular levels of Nrf2 and NQO1 expression” value in the series with Nrf2 target genes (compared with 10, ref Lazzara et al. 2020) is “remarkable increase”.
In the case of `Cc1cc(C)c(C)c(S(=O)(=O)Nc2ccc(N3CC[C@H](C(=O)O)C3)c3ccccc23)c1C` [Compound 12], the Kd on Keap1 Kelch domain is 6 µM. In addition, in series [5], the “metabolic stability in liver microsomes” value is “low metabolic stability”. Moreover, in the series with GCLC and NQO1, the “hepatic mRNA levels of GCLC and NQO1” value is on record as “significantly increased”.
For `C=CCOC(=O)/N=c1\oc2cc(N(CC)CC)ccc2cc1-c1nc2ccccc2s1` [Compound 25], in the series with Keap1-Nrf2 PPI [6], the IC50 is 5.1 µM. Also, the “effect in mouse model of LPS-induced cardiomyopathy” value in [7] was “cardiac protective effect”. Moreover, the “mRNA levels of Nrf2 target genes (HO-1 and NQO1)” value in the series on Nrf2 target genes (H9c2 cardiac cells, ref Jiang et al. 2018) is “significant increase”.
For the compound `O=[N+]([O-])c1ccc(Sc2nnc(COc3ccccc3)n2-c2ccccc2)c2ncccc12` [Compound 30], at Keap1-Nrf2 PPI [8], the “Comparative assessment by Bach et. al. FP (Ki μM)” value is given as “NA (≤77)”. The “expression of Nrf2-responsive proteins NQO1 and GCLM” value in the series with Nrf2 target genes (ref Kazantsev et al. 2014) is recorded as “induced expression”.

In general, EC50 refers to the concentration giving half of the maximal effect. By Kd is commonly meant the constant that tells how readily two partners part at equilibrium. One may read the IC50 as the concentration at which inhibition is half-maximal.
